Laboratory results as given in patent publication US10744114B2, “Use of eupatilin as pharmaceutical composition for prevention and treatment of fibrosis using EMT inhibitory activity” (OSTEONEUROGEN INC., priority 2016, dated 2020).

Tests used:
[1] = tested on: Col1 (type 1 Collagen), Vim (Vimentin) and Twist; assay: Real-time RT-PCR of EMT regulators in ONGHEPA1 cells; type: cell-based, mouse; conditions: TGF-β + eupatilin 50 μM, 24 hr
Procedure: Also in order to evaluate whether the effect of eupatilin described above is due to the influence of eupatilin on EMT, for the cells incubated for 24 hr in each test group, the extent of expression of […], for example, Col1 (type 1 Collagen), Vim (Vimentin) and Twist, was measured through real-time RT-PCR.

[2] = Observation of toxic symptoms and death after administration; type: in vivo, C57BL/6J mice; conditions: 2 to 3 days after administration, nasal, bleomycin-treated mice
Procedure: Eupatilin was used by being dissolved in a DPBS buffer (containing 1% DMSO), and the amount of eupatilin that was administered was 1 mL/kg, and the dose for each individual was calculated based on the recent body weight thereof 12 days after the administration of bleomycin, eupatilin was forcibly nasally administered once a day (5 times a week) for 1 week using a micropipette.

ONGHEPA1 cells = assay: TGF-β-induced fibrosis of ONGHEPA1 cells (microscope); type: cell-based, mouse; conditions: for inhibition of the progress of fibrosis (differentiation into myofibroblasts): TGF-β 5 ng/mL plus 50 μM compound, 24 hr
Excerpt: The liver tissue was separated from C57BL/6 mice and a single-cell suspension thereof was made, and immortalized cells were obtained through continuous culture and were confirmed to be mesenchymal stem cells (MSC) of HSC via RT-PCR (Reverse Transcription Polymerase Chain Reaction) using MC (Immunohistochemistry) and FACS (Fluorescence-Activated Cell Sorting). This cell line was called “ONGHEPA1”, and was deposited with the Korean Collection for Type Cultures (KCTC) of the Korea Research Institute of Bioscience and Biotechnology and assigned accession number KCTC13086BP.
Using such properties of HSC, the fibrotic characteristics of ONGHEPA1 were measured. To induce fibrosis, TGF-β (transforming growth factor beta) was added, and the morphologies of the cells were observed after 6 hr, 12 hr, 24 hr, and 48 hr. Consequently, fibrosis was confirmed to progress considerably after 24 hr and further progress after 48 hr (A of FIG. 6).
While ONGHEPA1 cells were incubated, they were treated with TGF-β to induce fibrosis, and 50 μM of eupatilin was added to the culture medium.
In order to more clearly evaluate the effect of eupatilin as above, changes were measured when ONGHEPA1 cells were first treated with eupatilin, washed to remove eupatilin and then treated with TGF-β to induce fibrosis. […] This means that eupatilin is directly associated with the course of fibrosis to thus inhibit the progress of fibrosis.
On the contrary, changes were measured when ONGHEPA1 cells were first treated with TGF-β to induce fibrosis, washed to remove TGF-β and then treated with eupatilin. […] Even when fibrosis was already progressed, eupatilin was able to restore the cells to their original normal condition.
In order to more clearly evaluate whether eupatilin was able to restore the cells that already undergone fibrosis to normal cells, changes were measured when ONGHEPA1 cells were treated with TGF-β for 24 hr to induce complete fibrosis and then treated with eupatilin. […] This means that fibrosis that has progressed considerably can be effectively treated using eupatilin.
The effects of various chromone derivatives other than eupatilin on fibrosis were measured in the same manner as in Example 3-3. While ONGHEPA1 cells were incubated, fibrosis was induced by TGF-β, and a chromone derivative was added at a concentration of 50 μM to the culture medium.

## COc1ccc(-c2cc(=O)c3c(O)c(OC)c(O)cc3o2)cc1OC [eupatilin, 2-(3,4-dimethoxyphenyl)-5,7-dihydroxy-6-methoxy-chromone]
[1]
  expression of Col1 (type 1 Collagen): inhibited
  expression of Twist: inhibited
  expression of Vim (Vimentin): inhibited
[2]
  toxic symptoms and occurrence of death: no particularly abnormal symptoms were observed
ONGHEPA1 cells
  inhibition of the progress of fibrosis (differentiation into myofibroblasts): fibrosis were not observed
ONGHEPA1 cells; listed as Chemical Formula 2
  inhibition of the progress of fibrosis (differentiation into myofibroblasts): superior fibrosis-inhibiting effects
ONGHEPA1 cells; TGF-β 1 to 12 hr, washed, then eupatilin 50 μM 24 hr
  restoration of cells after TGF-β pretreatment: normal cells such as a control group were maintained
ONGHEPA1 cells; TGF-β 24 hr, washed, then eupatilin 50 μM and TGF-β 24 hr
  restoration of completely fibrotic cells: restore the cells in which fibrosis has been completely induced by TGF-β to their normal condition
ONGHEPA1 cells; eupatilin 2 to 6 hr, washed, then TGF-β 24 hr
  inhibition of the progress of fibrosis after pretreatment: the progress of fibrosis was not inhibited
ONGHEPA1 cells; eupatilin pretreatment, washed, then TGF-β
  influence on normal HSC: no influence on normal HSC
